US8765728B2, “[1,5]-diazocin derivatives” (MelliTech, priority 2009, dated 2014)

System: Min6 cell
Experiment: Insulin secretion response of beta cell line to formula I compounds (insulin ELISA)
Format: cell-based
Settings: rank according to % increase versus control at most effective dose
Outline: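 After compound or vehicle exposure, Min6 cells were held 2 h in glucose-free medium and preincubated 30 min at 37° C in glucose-free KRBH (pH 7.4, 0.1% BSA). They were then incubated 30 min at 37° C in KRBH with varying glucose. Secreted insulin and acid-ethanol-extracted intracellular insulin were measured by ELISA.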

How did the “Insulin secretion (Min6 cell) Range 1 to 5” value (“Insulin secretion” below) turn out when `COc1ccc2c(c1OC(F)F)CN(C1CC1)C(=O)CCN2C(=O)c1cnccn1` [Compound 129, 5-cyclopropyl-7-(difluoromethoxy)-8-methoxy-1-(pyrazine-2-carbonyl)-2,3,5,6-tetrahydrobenzo[b][1,5]diazocin-4(1H)-one] was run?
Its value is 2 (2: 110-120% of control).

`O=C(c1cnccn1)N1CCC(=O)N(C2CC2)Cc2cc(F)ccc21` [Compound 130, 5-cyclopropyl-8-fluoro-1-(pyrazine-2-carbonyl)-2,3,5,6-tetrahydrobenzo[b][1,5]diazocin-4(1H)-one] was tested. Which “Insulin secretion” value did it give?
Its value is 1 (1: 90-110% of control).

For `O=C(c1ccccn1)N1CCC(=O)N(C2CC2)Cc2cc(Cl)ccc21` [Compound 131, 8-chloro-5-cyclopropyl-1-picolinoyl-2,3,5,6-tetrahydrobenzo[b][1,5]diazocin-4(1H)-one], which “Insulin secretion” value is on record?
The value was 1 (1: 90-110% of control).

How did the “Insulin secretion” value turn out when `O=C(c1ccccn1)N1CCC(=O)N(C2CC2)Cc2c1ccc1c2OCCO1` [Compound 132, 11-cyclopropyl-7-picolinoyl-2,3,8,9,11,12-hexahydro-[1,4]dioxino[2′,3′:3,4]benzo[1,2-b][1,5]diazocin-10(7H)-one] was run?
Its value is 1 (1: 90-110% of control).

Which “Insulin secretion” value does the source give for `O=C(c1cnccn1)N1CCC(=O)N(C2CC2)Cc2cc(Cl)ccc21` [Compound 133, 8-chloro-5-cyclopropyl-1-(pyrazine-2-carbonyl)-2,3,5,6-tetrahydrobenzo[b][1,5]diazocin-4(1H)-one] here?
The value was 2 (2: 110-120% of control).

With `COc1ccc2c(c1OC(F)F)CN(C1CC1)C(=O)CCN2C[C@@H](O)COc1ccc(Cl)cc1` [Compound 134, (R)-1-(3-(4-chlorophenoxy)-2-hydroxypropyl)-5-cyclopropyl-7-(difluoromethoxy)-8-methoxy-2,3,5,6-tetrahydrobenzo[b][1,5]diazocin-4(1H)-one] as the compound, how does the “Insulin secretion” value read?
The value was 1 (1: 90-110% of control).

With `O=C1CCN(C[C@@H](O)COc2ccc(Cl)cc2)c2ccc(Cl)cc2CN1C1CC1` [Compound 135, (R)-8-chloro-1-(3-(4-chlorophenoxy)-2-hydroxypropyl)-5-cyclopropyl-2,3,5,6-tetrahydrobenzo[b][1,5]diazocin-4(1H)-one] as the compound, how does the “Insulin secretion” value read?
Its value is 1 (1: 90-110% of control).

For `CS(=O)(=O)c1ccc(OC[C@H](O)CN2CCC(=O)N(C3CC3)Cc3cc(F)ccc32)cc1` [Compound 136, (R)-5-cyclopropyl-8-fluoro-1-(2-hydroxy-3-(4-(methylsulfonyl)phenoxy)propyl)-2,3,5,6-tetrahydrobenzo[b][1,5]diazocin-4(1H)-one], which “Insulin secretion” value is on record?
The value was 1 (1: 90-110% of control).

With `CS(=O)(=O)c1ccc(OC[C@H](O)CN2CCC(=O)N(C3CC3)Cc3cc(Cl)ccc32)cc1` [Compound 137, (R)-8-chloro-5-cyclopropyl-1-(2-hydroxy-3-(4-(methylsulfonyl)phenoxy)propyl)-2,3,5,6-tetrahydrobenzo[b][1,5]diazocin-4(1H)-one] as the compound, how does the “Insulin secretion” value read?
Its value is 2 (2: 110-120% of control).

Which “Insulin secretion” value does the source give for `Cc1cc(C(=O)N2CCC(=O)N(C3CC3)Cc3c2ccc2c3OCCO2)on1` [Compound 138, 11-cyclopropyl-7-(3-methylisoxazole-5-carbonyl)-2,3,8,9,11,12-hexahydro-[1,4]dioxino[2′,3′:3,4]benzo[1,2-b][1,5]diazocin-10(7H)-one] here?
Its value is 1 (1: 90-110% of control).

Which “Insulin secretion” value does the source give for `Cc1cc(C(=O)N2CCC(=O)N(C3CC3)Cc3cc(Cl)ccc32)on1` [Compound 139, 8-chloro-5-cyclopropyl-1-(3-methylisoxazole-5-carbonyl)-2,3,5,6-tetrahydrobenzo[b][1,5]diazocin-4(1H)-one] here?
The value was 1 (1: 90-110% of control).

Which “Insulin secretion” value does the source give for `COc1ccc2c(c1OC(F)F)CN(C1CC1)C(=O)CCN2C(=O)c1cc(C)no1` [Compound 140, 5-cyclopropyl-7-(difluoromethoxy)-8-methoxy-1-(3-methylisoxazole-5-carbonyl)-2,3,5,6-tetrahydrobenzo[b][1,5]diazocin-4(1H)-one] here?
Its value is 3 (3: 120-140% of control).

How did the “Insulin secretion” value turn out when `COc1ccc2c(c1)CN(C1CC1)C(=O)CCN2C(=O)c1cc(C)no1` [Compound 141, 5-cyclopropyl-8-methoxy-1-(3-methylisoxazole-5-carbonyl)-2,3,5,6-tetrahydrobenzo[b][1,5]diazocin-4(1H)-one] was run?
The value was 4 (4: 140-170% of control).

With `Cc1cc(C(=O)N2CCC(=O)N(C3CC3)Cc3cc(OC(F)F)ccc32)on1` [Compound 142, 5-cyclopropyl-8-(difluoromethoxy)-1-(3-methylisoxazole-5-carbonyl)-2,3,5,6-tetrahydrobenzo[b][1,5]diazocin-4(1H)-one] as the compound, how does the “Insulin secretion” value read?
The value was 4 (4: 140-170% of control).

With `O=C(CN1CCC(=O)N(C2CC2)Cc2cc(Cl)ccc21)c1ccc(OC(F)F)cc1` [Compound 143, 8-chloro-5-cyclopropyl-1-(2-(4-(difluoromethoxy)phenyl)-2-oxoethyl)-2,3,5,6-tetrahydrobenzo[b][1,5]diazocin-4(1H)-one] as the compound, how does the “Insulin secretion” value read?
Its value is 2 (2: 110-120% of control).

How did the “Insulin secretion” value turn out when `O=C(CN1CCC(=O)N(C2CC2)Cc2c1ccc1c2OCCO1)c1ccc(OC(F)F)cc1` [Compound 144, 11-cyclopropyl-7-(2-(4-(difluoromethoxy)phenyl)-2-oxoethyl)-2,3,8,9,11,12-hexahydro-[1,4]dioxino[2′,3′:3,4]benzo[1,2-b][1,5]diazocin-10(7H)-one] was run?
Its value is 1 (1: 90-110% of control).

With `OC(CN1CCCN(C2CC2)Cc2cc(F)ccc21)c1ccc(Cl)cc1` (stereo not shown) [Compound 145, 1-(4-chlorophenyl)-2-(5-cyclopropyl-8-fluoro-3,4,5,6-tetrahydrobenzo[b][1,5]diazocin-1(2H)-yl)ethanol] as the compound, how does the “Insulin secretion” value read?
Its value is 3 (3: 120-140% of control).

For `C[C@H](O)CN1CCC(=O)N(C2CC2)Cc2c1ccc1c2OCCO1` [Compound 146, (S)-11-cyclopropyl-7-(2-hydroxypropyl)-2,3,8,9,11,12-hexahydro-[1,4]dioxino[2′,3′:3,4]benzo[1,2-b][1,5]diazocin-10(7H)-one], which “Insulin secretion” value is on record?
Its value is 5 (5: >170% of control).

With `C[C@H](O)CN1CCC(=O)N(C2CC2)Cc2cc(Cl)ccc21` [Compound 147, (S)-8-chloro-5-cyclopropyl-1-(2-hydroxypropyl)-2,3,5,6-tetrahydrobenzo[b][1,5]diazocin-4(1H)-one] as the compound, how does the “Insulin secretion” value read?
Its value is 2 (2: 110-120% of control).

With `O=C1CCN(CC(O)c2ccc(OC(F)F)cc2)c2ccc(Cl)cc2CN1C1CC1` (stereo not shown) [Compound 148, 8-chloro-5-cyclopropyl-1-(2-(4-(difluoromethoxy)phenyl)-2-hydroxyethyl)-2,3,5,6-tetrahydrobenzo[b][1,5]diazocin-4(1H)-one] as the compound, how does the “Insulin secretion” value read?
The value was 1 (1: 90-110% of control).

`O=C1CCN(CC(O)c2ccc(OC(F)F)cc2)c2ccc3c(c2CN1C1CC1)OCCO3` (stereo not shown) [Compound 149, 11-cyclopropyl-7-(2-(4-(difluoromethoxy)phenyl)-2-hydroxyethyl)-2,3,8,9,11,12-hexahydro-[1,4]dioxino[2′,3′:3,4]benzo[1,2-b][1,5]diazocin-10(7H)-one] was tested. Which “Insulin secretion” value did it give?
The value was 3 (3: 120-140% of control).

Which “Insulin secretion” value does the source give for `O=C1CCN(C(=O)Cc2ccc(F)cc2)c2ncccc2CN1CC1CC1` [Compound 150, 5-(cyclopropylmethyl)-1-(2-(4-fluorophenyl)acetyl)-2,3,5,6-tetrahydropyrido[2,3-b][1,5]diazocin-4(1H)-one] here?
The value was 4 (4: 140-170% of control).

`Cc1cc(C(=O)N2CCC(=O)N(CC3CC3)Cc3cccnc32)on1` [Compound 151, 5-(cyclopropylmethyl)-1-(3-methylisoxazole-5-carbonyl)-2,3,5,6-tetrahydropyrido[2,3-b][1,5]diazocin-4(1H)-one] was tested. Which “Insulin secretion” value did it give?
Its value is 1 (1: 90-110% of control).

Which “Insulin secretion” value does the source give for `O=C1CCN(C(=O)c2cnccn2)c2ncccc2CN1CC1CC1` [Compound 152, 5-(cyclopropylmethyl)-1-(pyrazine-2-carbonyl)-2,3,5,6-tetrahydropyrido[2,3-b][1,5]diazocin-4(1H)-one] here?
The value was 3 (3: 120-140% of control).

`O=C1CCN(C(=O)c2cccnc2)c2ncccc2CN1CC1CC1` [Compound 153, 5-(cyclopropylmethyl)-1-nicotinoyl-2,3,5,6-tetrahydropyrido[2,3-b][1,5]diazocin-4(1H)-one] was tested. Which “Insulin secretion” value did it give?
The value was 3 (3: 120-140% of control).

How did the “Insulin secretion” value turn out when `CC(C)(C)C(O)CN1CCC(=O)N(C2CCCC2)Cc2cc(F)ccc21` (stereo not shown) [Compound 154, 5-cyclopentyl-8-fluoro-1-(2-hydroxy-3,3-dimethylbutyl)-2,3,5,6-tetrahydrobenzo[b][1,5]diazocin-4(1H)-one] was run?
Its value is 1 (1: 90-110% of control).

`COc1ccc2c(c1)CN(CC=C(C)C)C(=O)CCN2C(=O)c1ccno1` [Compound 156, 1-(isoxazole-5-carbonyl)-8-methoxy-5-(3-methylbut-2-enyl)-2,3,5,6-tetrahydrobenzo[b][1,5]diazocin-4(1H)-one] was tested. Which “Insulin secretion” value did it give?
The value was 1 (1: 90-110% of control).

For `CCC#CCN1Cc2ccccc2N(C(=O)c2ccno2)CCC1=O` [Compound 158, 1-(isoxazole-5-carbonyl)-5-(pent-2-ynyl)-2,3,5,6-tetrahydrobenzo[b][1,5]diazocin-4(1H)-one], which “Insulin secretion” value is on record?
Its value is 1 (1: 90-110% of control).

For `O=C1CCN(C(=O)c2ccno2)c2cc3c(cc2CN1CC1CC1)OCO3` [Compound 159, 9-(cyclopropylmethyl)-5-(isoxazol-5-ylcarbonyl)-6,7,9,10-tetrahydro[1,3]dioxolo[4,5-i][1,5]benzodiazocin-8(5H)-one], which “Insulin secretion” value is on record?
Its value is 1 (1: 90-110% of control).

`COc1ccc2c(c1)CN(C1CC1)C(=O)CCN2C(=O)C1CCC1` [Compound 160, 1-(cyclobutanecarbonyl)-5-cyclopropyl-8-methoxy-2,3,5,6-tetrahydrobenzo[b][1,5]diazocin-4(1H)-one] was tested. Which “Insulin secretion” value did it give?
Its value is 1 (1: 90-110% of control).

How did the “Insulin secretion” value turn out when `O=C1CCNc2cc3c(cc2CN1C1CCCC1)OCO3` [Compound 161, 9-cyclopentyl-6,7,9,10-tetrahydro[1,3]dioxolo[4,5-i][1,5]benzodiazocin-8(5H)-one] was run?
Its value is 1 (1: 90-110% of control).
